Where two headings read alike, the source gives them in different places.
Columns and labels:
[1] = system: luciferin/luciferase luminescent reactions; details: for Max RLU / Max Time: 1 mM in ATP luminescent reagent; for Max RLU%: relative to the reaction system without pyrophosphoric acid (no PPi)
Method: To a 5 ml aliquot of this reagent, pyrophosphoric acid (Wako Purechemical Industries, Ltd.) was added to give a final concentration of 1 mM. Subsequently, ATP standard reagent (ATP concentration = 1 x 10^-12 M) included in the kit was dispensed into a microtiter plate at 100 µl/well. […] The same operations were performed on ATP luminescent reagent without pyrophosphoric acid. Further, ATP luminescent reagent to which potassium pyrophosphate or sodium pyrophosphate was added at a final concentration of 1 mM instead of pyrophosphoric acid was also prepared, and the above-described operations were performed.

[2] = biological target: T1, luciferase standard enzyme (Photinus pyralis, UniProt P08659); details: 2 mM; for Max RLU / Max Time: with 2 mM sodium diethyldithiocarbamate, 10% glycerol; for Max RLU%: relative to the system without pyrophosphoric acid (no PPi)
T1 sequence (P08659 whole entry): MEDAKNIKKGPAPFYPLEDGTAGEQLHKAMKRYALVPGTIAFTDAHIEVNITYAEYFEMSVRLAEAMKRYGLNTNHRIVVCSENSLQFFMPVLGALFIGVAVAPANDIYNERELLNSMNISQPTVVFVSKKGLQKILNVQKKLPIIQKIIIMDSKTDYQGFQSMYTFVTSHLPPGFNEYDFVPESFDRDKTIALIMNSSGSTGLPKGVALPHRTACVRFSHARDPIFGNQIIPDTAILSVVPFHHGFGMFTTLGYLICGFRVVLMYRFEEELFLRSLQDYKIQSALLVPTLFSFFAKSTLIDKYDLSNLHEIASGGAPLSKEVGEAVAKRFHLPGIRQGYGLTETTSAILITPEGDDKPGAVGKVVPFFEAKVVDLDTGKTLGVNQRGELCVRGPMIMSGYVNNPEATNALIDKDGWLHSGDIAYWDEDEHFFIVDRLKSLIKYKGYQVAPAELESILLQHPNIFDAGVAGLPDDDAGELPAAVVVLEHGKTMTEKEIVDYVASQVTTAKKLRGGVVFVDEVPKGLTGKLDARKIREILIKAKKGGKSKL
Method: A "luciferase luminescent reagent" containing 20 mM tricine, 1.07 mM (MgCO3)4Mg(OH)2.5H2O, 2.67 mM magnesium sulfate, 0.1 mM EDTA, 470 µM luciferin and 530 µM adenosine triphosphate (ATP), pH 7.8 was prepared in accordance with the formulation described in the instructions included in "PicaGene Luminescent Kit" (Toyo Ink Manufacturing Co., Ltd.; product No. PGL100), except that 270 µM CoA and 33.3 mM DTT (thiol reagents) mentioned in the instructions were not added. […] In both reagents thus prepared, glycerol (final concentration: 10%) was allowed to co-exist in order to promote stabilization of luciferase enzyme.
A luciferase enzyme solution (100 ng/ml) was prepared by diluting "luciferase standard enzyme (10 µg/ml)" included in "PicaGene Luminescent Kit" (Toyo Ink Manufacturing Co., Ltd.; product No. PGL100) with "PicaGene Cell Lysis Reagent LUC" (Toyo Ink Manufacturing Co., Ltd.; product No. PGC50). 10 µl of this luciferase enzyme solution was taken into a cuvette of a luminometer (Berthold, LB9506). First, 100 µl of the "luciferase luminescent reagent" prepared above was added to the enzyme solution. Immediately after the addition, the resulting mixed solution was loaded onto the luminometer, and the quantity of light emitted (RLU/sec) was measured for the initial 200 seconds at intervals of 25 seconds. Then, the quantity of light emitted was measured in the same manner using the "luciferase luminescent reagent (+improvement)".

[3] = biological target: T1, luciferase standard enzyme; details: 1.5mM PPiK; relative to w/o pyrophosphoric acid
Method: A "luciferase luminescent reagent" containing 20 mM tricine, 1.07 mM (MgCO3)4Mg(OH)2.5H2O, 2.67 mM magnesium sulfate, 0.1 mM EDTA, 33.3 mM DTT, 470 µM luciferin, 270 µM CoA and 530 µM adenosine triphosphate (ATP), pH 7.8 was prepared in accordance with the formulation described in the instructions included in "PicaGene Luminescent Kit" (Toyo Ink Manufacturing Co., Ltd.; product No. PGL100). […] Further, glycerol and DTT were allowed to co-exist in each of the above luminescent reagents at final concentrations of 10% and 1 mM, respectively, in order to promote the stabilization of luciferase enzyme.
A luciferase enzyme solution (100 ng/ml) was prepared by diluting "luciferase standard enzyme (10 µg/ml)" included in "PicaGene Luminescent Kit" (Toyo Ink Manufacturing Co., Ltd.; product No. PGL100) with "PicaGene Cell Lysis Reagent LUC" (Toyo Ink Manufacturing Co., Ltd.; product No. PGC50). 10 µl of this luciferase enzyme solution was dispensed into each well of a microtiter plate. Subsequently, 100 µl of the above-described luminescent reagent was added to the enzyme solution in each well. […] Since luciferin/luciferase luminescent reactions are greatly affected by temperature, all operations and measurements with a luminometer were performed in a thermostatic chamber set at 23°C.
Then, the above-described operations were repeated. […]

[4] = system: luciferase enzyme; assay: ATP assay, time course of light emission with ATP luminescent reagent (Example 3, microtiter plate, 23°C); type: biochemical; details: 2 mM, added as organic sulfur reagent
Excerpt: Then, the above-described operations were repeated.

| SMILES | Max RLU [1] [RLU] | Max Time [1] [min] | initial luminescence ([1]; 1 mM, relative to the initial luminescence with the ATP luminescent reagent) [%] | Max RLU% ([1]; 1 mM) [%] | time at which the quantity of light emitted reached the maximum value ([1]; after the start of the measurement) [min] | Max RLU [2] [RLU] | Max Time [2] [min] | Max RLU% [2] [%] | Max RLU% [3] [%] | effect on the stabilization of luminescent reactions [4] |
| --- | --- | --- | --- | --- | --- | --- | --- | --- | --- | --- |
| O=P(O)(O)OP(=O)(O)O [PPi, pyrophosphoric acid] | 30874.3 | 5 | ≤ 50 | 48.9 | 5 | 67904.5 | 6 | 55.4 |  |  |
| O=P([O-])([O-])OP(=O)([O-])[O-].[K+].[K+].[K+].[K+] [PPiK, potassium pyrophosphate] | 16800.3 | 15 |  | 26.6 |  | 31448.0 | 12 | 25.6 | 27.5 |  |
| O=P([O-])([O-])OP(=O)([O-])[O-].[Na+].[Na+].[Na+].[Na+] [PPiNa, sodium pyrophosphate] | 15275.5 | 25 |  | 24.2 |  | 30290.8 | 12 | 24.7 |  |  |
| CCN(CC)C(=S)[S-].[Na+] [organic sulfur reagent, sodium diethyldithiocarbamate] |  |  |  |  |  |  |  |  |  | no effect on the stabilization of luminescent reactions |

Source: patent EP1793002A1 (priority 2004, dated 2006)
